From article PMC10369045, “Radiolabelling of peptides with tetrazine ligation based on the inverse electron-demand Diels–Alder reaction: rapid, catalyst-free and mild conversion of 1,4-dihydropyridazines to pyridazines” (RSC Advances, 2023)

How the values were obtained:
[1] = Reversed-phase HPLC-RAD/DAD retention of DHP and pyridazine forms; type: physicochemical; conditions: HPLC-RAD/DAD and HPLC-RAD/UV, Kinetex 5 µm C18 250 × 10.0 mm, 20-50% B in 20 min, H2O/ACN + 0.1% TFA, 3 mL/min, room temperature; elution order used as indication of lipophilicity
Protocol: The HPLC instruments were equipped with either two channel UV/VIS or a PDA detector, and a NaI(Tl) scintillation detector for detection of radioactivity.
Table S2. The gradient used for HPLC-RAD/DAD studies.
Flow rate: 3 mL/min at room temperature
Column: Phenomenex Kinetex® 5 µm C18 100 Å, LC Column 250 × 10.0 mm
Eluents: (A) H2O+0.1% Trifluoroacetic acid and (B) ACN +0.1% Trifluoroacetic acid

[2] = Incubation tests of IEDDA cycloaddition product (conversion of DHPs to oxidized pyridazine form); type: physicochemical; conditions: for Conversion to oxidized form of the peptide cycloadduct: incubation in ≥95% (v/v) water at 60 °C; for Conversion to oxidized form of the peptide cycloadduct / [18F]AmBF3(ox.)-TOC (%): radio-HPLC
Protocol: Protic solvents in acidic reaction conditions at various temperatures were used in-order to investigate the conditions that might influence the formation of the oxidized form from DHPs or that might slow down the process. […] The (radio)peaks of [^19F/^18F]6(a, b) (peptide 6, tR = 20 min) were successfully converted (≥97%) to the more polar compound (peptide 6, tR = 17 min) by incubation in increasing amounts of water in acetonitrile (Fig. 2C). When incubating in 75% (v/v) ACN in water for 10 min at 60 °C, the conversion to polar (peptide 6, tR = 17 min) compound was 59% (ESI Table S7 ^†).
Table S7. Incubation tests of IEDDA cycloaddition product.
Peptide Peptide Solvent Vol. pH Temp. Time [18F] AmBF3 (ox.)-
(nmol) (v/v-%) (µL) (°C) (min) TOC (%)

[3] = Lipophilicity (LogD7.4), shake-flask method
Protocol: Lipophilicity. Shake-flask method was used for determining the lipophilicities (LogD7.4) of the radiolabeled
compounds. LogD7.4 was determined as a distribution of radioactivity between 0.01 M PBS and octanol. The
purified radiolabeled compound (25 µL) was added to a 1:1 mixture of 1-octanol and 0.02 M PBS (pH 7.4) in
a 1.5 mL microtube. The mixture was shaken mechanically at 500 rpm for 10 minutes, centrifuged (1000 × g,
5 minutes), and the layers were separated, followed by pipetting a sample (500 µL) from each layer into a pre-
weighed polypropylene tube. The radioactivity in the sample was measured with a Wizard gamma counter.
The distribution of the radiolabeled compound between the octanol and the PBS layers was calculated

[4] = test system: SSTR2-expressing rat pancreatic adenocarcinoma AR42J cells; experiment: Cell uptake assay in AR42J cells; type: cell-based; conditions: oxidized pyridazine form, gamma counting
Protocol: Aoct=activity in the octanol phase
APBS=activity in the PBS phase
Cell-uptake assay in AR42J
The cells were cultured in Gibco™ F-12K Medium
1×PBS was prepared from Phosphate Buffered Saline
Tablets (Fisher Bioreagents, Hampton, USA) in water. 1.0 M Sodium hydroxide was purchased from VWR […]
Chemicals. […] AR42J cells (1×106 per […]
well) were seeded overnight on 6-well plates.
Another set of cells were co-incubated in […]
microtube (=free fraction). […]
washing the cells with cold 1×PBS. […] 1 M NaOH […]
microtube (=internalized fraction).

[5] = test system: tumour; conditions: ex vivo biodistribution and PET/CT imaging; tumour uptake efficiently blocked; ref earlier cohort by us; cited from earlier work
Protocol: In this study, we report a rapid, mild, and facile method for converting dihydropyridazine cycloaddition products to pyridazine during IEDDA, in only 10 minutes.

## C[C@@H](O)[C@@H]1NC(=O)[C@H](CCCCN)NC(=O)[C@@H](Cc2c[nH]c3ccccc23)NC(=O)[C@H](Cc2ccc(O)cc2)NC(=O)[C@@H](NC(=O)[C@@H](Cc2ccccc2)NC(=O)CCOCCOCCOCCOCCON=Cc2ccc(C(=O)NCCOCCOCCOCCNC(=O)OC3CCCC4=C(c5ccc(CC(=O)NCC[N+](C)(C)C[B-](F)(F)F)cc5)NN=CC4CC3)cc2)CSSC[C@@H](C(=O)N[C@H](CO)[C@@H](C)O)NC1=O (stereo partly shown) [[18F]6 (DHP, b)]
[1]
  Retention time: 20.2 min

## C[C@@H](O)[C@@H]1NC(=O)[C@H](CCCCN)NC(=O)[C@@H](Cc2c[nH]c3ccccc23)NC(=O)[C@H](Cc2ccc(O)cc2)NC(=O)[C@@H](NC(=O)[C@@H](Cc2ccccc2)NC(=O)CCOCCOCCOCCOCCON=Cc2ccc(CNC(=O)OC3CCCc4cnnc(-c5ccc(CC(=O)NCC[N+](C)(C)C[B-](F)(F)F)cc5)c4CC3)cc2)CSSC[C@@H](C(=O)N[C@H](CO)[C@@H](C)O)NC1=O (stereo partly shown) [[18F]5 (ox.), AmBF3-PEG4-TOC]
[1]
  Retention time: 18.7 min
[2]
  Conversion to oxidized form of the peptide cycloadduct: full conversion
[3]; pH 7.4
  logD: 0.58 ± 0.06

## C[C@@H](O)[C@@H]1NC(=O)[C@H](CCCCN)NC(=O)[C@@H](Cc2c[nH]c3ccccc23)NC(=O)[C@H](Cc2ccc(O)cc2)NC(=O)[C@@H](NC(=O)[C@@H](Cc2ccccc2)NC(=O)CCOCCOCCOCCOCCON=Cc2ccc(C(=O)NCCOCCOCCOCCNC(=O)OC3CCCc4cnnc(-c5ccc(CC(=O)NCC[N+](C)(C)C[B-](F)(F)F)cc5)c4CC3)cc2)CSSC[C@@H](C(=O)N[C@H](CO)[C@@H](C)O)NC1=O (stereo partly shown) [[18F]6, AmBF3-PEG7-TOC]
[2]; 2 nmol peptide, ACN:H2O (25:75), 60 µL, 60 °C, 15 min, n = 1
  [18F]AmBF3(ox.)-TOC (%): 84%
[2]; 2.5 nmol peptide, 0.15 mM citrate buffer, 180 µL, pH 3.75, 60 °C, 10 min
  [18F]AmBF3(ox.)-TOC (%): 9%
[2]; 2.5 nmol peptide, ACN:H2O (25:75), 20 µL, 60 °C, 10 min
  [18F]AmBF3(ox.)-TOC (%): 89%
[2]; 2.5 nmol peptide, ACN:H2O (40:60), 25 µL, 60 °C, 15 min, n = 1
  [18F]AmBF3(ox.)-TOC (%): 77%
[2]; 2.5 nmol peptide, ACN:H2O (75:25), 20 µL, 60 °C, 10 min, n = 1
  [18F]AmBF3(ox.)-TOC (%): 59%
[2]; 5 nmol peptide, 0.01 mM citrate buffer, 180 µL, pH 4, 37 °C, 10 min
  [18F]AmBF3(ox.)-TOC (%): 4%
[2]; 5 nmol peptide, 0.15 mM citrate buffer, 180 µL, pH 3.75, 37 °C, 10 min
  [18F]AmBF3(ox.)-TOC (%): 5%
[2]; 5 nmol peptide, 10 x PBS, 180 µL, pH 6.8, 37 °C, 10 min
  [18F]AmBF3(ox.)-TOC (%): 5%
[2]; 7.5 nmol peptide, ACN:H2O (13:87), 150 µL, 60 °C, 10 min
  [18F]AmBF3(ox.)-TOC (%): 25%
[2]; 7.5 nmol peptide, ACN:H2O (25:75), 20 µL, 40 °C, 20 min
  [18F]AmBF3(ox.)-TOC (%): 86%
[2]; 2-50 nmol peptide, ACN:H2O (≥95% H2O), 20-200 µL, 60 °C, 10 min, n = 1
  [18F]AmBF3(ox.)-TOC (%): 100%
[2]; collected HPLC fraction left at room temperature for 18 hours (overnight), HPLC-DAD and UHPLC-HRMS
  Conversion of DHP peak cluster (tR ≈ 20 min) to single oxidized peak (tR = 17 min) at room temperature: total conversion
[2]
  Conversion to oxidized form of the peptide cycloadduct: full conversion
[4]; 1 million AR42J cells per well, 37 °C, triplicates per timepoint, blocked by co-incubation with excess non-radiolabelled octreotide
  Cell uptake in AR42J cells (specificity, blocking with octreotide): specific uptake
[4]; internalized fraction after glycine buffer (pH 2.8) wash and 1 M NaOH lysis
  Internalization by AR42J cells: internalized by the cells
[5]
  Tumour visualization in vivo: able to visualize the tumour in vivo
[3]; shake-flask 1-octanol/PBS (pH 7.4) 1:1, 25 µL purified radiolabelled compound, shaken 500 rpm 10 min, centrifuged 1000 × g 5 min, gamma counter, mean ± SD, n = 3-4, HPLC-separated fractions (DHP a 77%, DHP b 88% pure), listed as [^18F]6(ox.)
  LogD7.4: −0.73 ± 0.12

## C[C@@H](O)[C@@H]1NC(=O)[C@H](CCCCN)NC(=O)[C@@H](Cc2c[nH]c3ccccc23)NC(=O)[C@H](Cc2ccc(O)cc2)NC(=O)[C@@H](NC(=O)[C@@H](Cc2ccccc2)NC(=O)CCOCCOCCOCCOCCON=Cc2ccc(C(=O)NCCOCCOCCOCCNC(=O)OC3CCCC4=C(c5ccc(CC(=O)NCC[N+](C)(C)C[B-](F)(F)F)cc5)NN=CC4CC3)cc2)CSSC[C@@H](C(=O)N[C@H](CO)[C@@H](C)O)NC1=O (stereo partly shown) [[18F]6 (DHP, a)]
[1]
  Retention time: 20.6 min
